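Cultured in 96-well plates, cells were exposed to test compound for 48 hours across five concentrations. TGI marks complete inhibition of growth.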
How the values were obtained:
Experiment in all cases: inhibition of tumour cell growth, NCI panel, 48 h
NCI-H226 lung = tested on: NCI-H226 lung
UACC-257 melanoma = tested on: UACC-257 melanoma
HOP-62 NSCLC = tested on: HOP-62 NSCLC
CCRF-CEM leukemia = tested on: CCRF-CEM leukemia
RPMI-8226 leukemia = tested on: RPMI-8226 leukemia
NCI-H460 lung = tested on: NCI-H460 lung
MOLT-4 leukemia = tested on: MOLT-4 leukemia
HCC-2998 colon = tested on: HCC-2998 colon
SK-MEL-5 melanoma = tested on: SK-MEL-5 melanoma
SW-620 colon = tested on: SW-620 colon
A549 NSCLC = tested on: A549 NSCLC
SF-295 CNS = tested on: SF-295 CNS
SN12C renal = tested on: SN12C renal
HCT-116 colon = tested on: HCT-116 colon
HCT-15 colon = tested on: HCT-15 colon
LOX IMVI melanoma = tested on: LOX IMVI melanoma
PC-3 prostate = tested on: PC-3 prostate
MDA-MB-435 = tested on: MDA-MB-435
MCF7 breast = tested on: MCF7 breast
BT-549 breast = tested on: BT-549 breast

SMILES | TGI (NCI-H226 lung) | TGI (UACC-257 melanoma) | TGI (HOP-62 NSCLC) | TGI (CCRF-CEM leukemia) | TGI (RPMI-8226 leukemia) | TGI (NCI-H460 lung) | TGI (MOLT-4 leukemia) | TGI (HCC-2998 colon) | TGI (SK-MEL-5 melanoma) | TGI (SW-620 colon) | TGI (A549 NSCLC) | TGI (SF-295 CNS) | TGI (SN12C renal) | TGI (HCT-116 colon) | TGI (HCT-15 colon) | TGI (LOX IMVI melanoma) | TGI (PC-3 prostate) | TGI (MDA-MB-435) | TGI (MCF7 breast) | TGI (BT-549 breast)
OCc1ccc2[n+](c1)CCC1c3ccccc3NC21 (stereo not drawn) | > 300 µM | > 300 µM | > 300 µM | > 300 µM | > 300 µM | > 300 µM | > 300 µM | > 300 µM | > 300 µM | > 300 µM | > 300 µM | > 300 µM | > 300 µM | > 300 µM | > 300 µM | > 300 µM | – | – | – | –
COC(=O)C(CCC#N)(CCC#N)C(=O)OC | > 100 µM | > 100 µM | > 100 µM | > 100 µM | > 100 µM | > 100 µM | > 100 µM | > 100 µM | > 100 µM | > 100 µM | > 100 µM | > 100 µM | > 100 µM | > 100 µM | > 100 µM | > 100 µM | – | – | – | –
COc1ccc(C2Oc3c(cc(O)c(OC)c3C)[C@@H]2C)cc1OC (stereo partly drawn) | > 100 µM | > 100 µM | > 100 µM | > 100 µM | > 100 µM | > 100 µM | > 100 µM | > 100 µM | > 100 µM | > 100 µM | > 100 µM | > 100 µM | – | > 100 µM | – | > 100 µM | – | – | – | –
Cc1nnc(Nc2ccccc2)o1 | > 100 µM | > 100 µM | – | > 100 µM | > 100 µM | – | > 100 µM | – | > 100 µM | > 100 µM | > 100 µM | > 100 µM | > 100 µM | > 100 µM | > 100 µM | > 100 µM | > 100 µM | > 100 µM | > 100 µM | –
CC(=O)OCC(C)C1=C(O)C(=O)C2(C)C/C=C(/C)CC/C=C(\C)CCC(O)C(C)CCC12 (stereo not drawn) | 33.5 µM | 33.6 µM | 32.8 µM | 70.9 µM | 39.2 µM | 32 µM | 28.6 µM | – | 32.1 µM | 37.8 µM | 33.8 µM | 29.9 µM | 34.1 µM | 32.8 µM | 36.2 µM | 33.1 µM | 38.1 µM | 32.2 µM | 44.2 µM | –
O=C(CC(=O)n1nc(-c2ccccc2)c(N=Nc2ccccc2C(=O)O)c1-c1ccccc1)Nc1ccc(Cl)cc1 | > 100 µM | > 100 µM | > 100 µM | – | > 100 µM | > 100 µM | 27.9 µM | > 100 µM | > 100 µM | > 100 µM | > 100 µM | – | – | > 100 µM | > 100 µM | – | > 100 µM | – | > 100 µM | 93 µM
O=C(Nc1ccc(Br)cc1)c1c(-c2ccccc2)c2ccc(O)cc2oc1=O | > 10 µM | > 10 µM | > 10 µM | > 10 µM | > 10 µM | > 10 µM | > 10 µM | > 10 µM | > 10 µM | > 10 µM | – | > 10 µM | > 10 µM | – | > 10 µM | > 10 µM | > 10 µM | > 10 µM | > 10 µM | –
CCOC(=O)C1Cc2[nH]c3ccccc3c2C(C)C1C (stereo not drawn) | 25.3 µM | 32.3 µM | – | 57.4 µM | – | 33.2 µM | 42 µM | – | 26.9 µM | 33.6 µM | 34.8 µM | 42.3 µM | 32.8 µM | 32.6 µM | 32.1 µM | 28.2 µM | – | – | – | –
Cn1cc2ccccc2c1-c1nc(N)nc(F)n1 | > 100 µM | > 100 µM | > 100 µM | > 100 µM | > 100 µM | > 100 µM | > 100 µM | > 100 µM | > 100 µM | > 100 µM | > 100 µM | > 100 µM | > 100 µM | > 100 µM | > 100 µM | > 100 µM | – | – | – | –
COc1cc(-c2cc(=O)c3cc4c(cc3[nH]2)OCO4)cc(OC)c1O | > 10 µM | > 10 µM | > 10 µM | > 10 µM | > 10 µM | > 10 µM | > 10 µM | > 10 µM | > 10 µM | > 10 µM | > 10 µM | > 10 µM | > 10 µM | > 10 µM | > 10 µM | > 10 µM | > 10 µM | > 10 µM | > 10 µM | –
C[C@@]12[C@H]3CC[C@@H]1[C@H](O)C(=O)N2CC3 | > 100 µM | > 100 µM | > 100 µM | > 100 µM | > 100 µM | > 100 µM | > 100 µM | > 100 µM | > 100 µM | > 100 µM | > 100 µM | > 100 µM | – | – | > 100 µM | > 100 µM | > 100 µM | > 100 µM | > 100 µM | –
COC(=O)C1(C(=O)OC)CC2=C(S(=O)(=O)c3ccccc3)C[C@H](S(=O)(=O)c3ccccc3)[C@H]2C1 | > 100 µM | > 100 µM | > 100 µM | > 100 µM | > 100 µM | > 100 µM | > 100 µM | 29.5 µM | > 100 µM | > 100 µM | > 100 µM | > 100 µM | > 100 µM | > 100 µM | > 100 µM | > 100 µM | > 100 µM | > 100 µM | – | > 100 µM
O=C(O)CSc1nnc(COc2ccc(Cl)cc2)n1-c1ccccc1 | > 100 µM | > 100 µM | > 100 µM | > 100 µM | – | > 100 µM | > 100 µM | > 100 µM | – | > 100 µM | > 100 µM | > 100 µM | > 100 µM | > 100 µM | > 100 µM | > 100 µM | > 100 µM | > 100 µM | > 100 µM | –
CC(O[Si](c1ccccc1)(c1ccccc1)C(C)(C)C)[C@H](NC(=O)OC(C)(C)C)C(=O)O[Si](c1ccccc1)(c1ccccc1)C(C)(C)C (stereo partly drawn) | – | 28.8 µM | 34.2 µM | 76.6 µM | 62.6 µM | 25.5 µM | 53.1 µM | 34.7 µM | 30.9 µM | 32.1 µM | 27.9 µM | 21.4 µM | – | 23.7 µM | 18.8 µM | – | 20.5 µM | – | 48.6 µM | –

Source: PubChem BioAssay (NCI)
